How the values were obtained:
[1] = tested on: velvetleaf; assay: Test A pre-/postemergence herbicide test; type: in vivo, Abutilon theophrasti
How it was run: (§1)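 Visual injury scores on a 0–100 scale (100 = complete control) taken about ten days post-treatment in greenhouse against untreated controls; dash means no result. Treatments: preemergence soil spray and postemergence spray to runoff on one- to two-leaf plants 2 to 10 cm tall, surfactant-containing formulation.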

[2] = tested on: large crabgrass; assay: Test A pre-/postemergence herbicide test; type: in vivo, Digitaria sanguinalis
How it was run: as §1

[3] = tested on: pigweed; assay: Test B pre-/postemergence herbicide test; type: in vivo, Amaranthus retroflexus; details: for Plant response rating, Pigweed: preemergence; for Pigweed plant response rating: postemergence, visual rating, scale 0 (no effect) to 100 (complete control)
How it was run: (§2)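 Plants compared with untreated controls 13–15 days post-treatment and given a visual 0–100 injury score. Applications: preemergence to seeds; postemergence at 1- to 4-leaf (2–18 cm); paddy species flooded, 2-leaf stage. Vehicle non-phytotoxic, surfactant included.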

[4] = tested on: blackgrass; assay: Test B postemergence herbicide test; type: in vivo, Alopecurus myosuroides; details: postemergence, visual rating, scale 0 (no effect) to 100 (complete control)
How it was run: (§3)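 Plants grow to 1- to 4-leaf stage (2–18 cm) for postemergence spraying, or to 2-leaf stage for the paddy test. Formulated compound is applied. Greenhouse holding lasts 13–15 days. Response is scored visually relative to controls, 0 no effect to 100 complete control; a dash means no result.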

[5] = tested on: wild oat; assay: Test B postemergence herbicide test; type: in vivo, Avena fatua; details: postemergence, visual rating, scale 0 (no effect) to 100 (complete control)
How it was run: (§4)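 Visual ratings, 0 (no effect) to 100 (complete control), made versus controls after 13–15 d greenhouse. Paddy plants treated at 2-leaf stage; postemergence plants at 1- to 4-leaf stage, 2–18 cm tall.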

[6] = tested on: giant foxtail; assay: Test B pre-/postemergence herbicide test; type: in vivo, Setaria faberi; details: for Plant response rating, Foxtail, Giant: preemergence; for Foxtail, Giant plant response rating: postemergence, visual rating, scale 0 (no effect) to 100 (complete control)
How it was run: as §2

[7] = tested on: small flower umbrella sedge; assay: Test B flooded paddy test; type: in vivo, Cyperus difformis; details: 1000 g ai/ha, visual rating, scale 0 to 100 (0 no effect, 100 complete control), 13 to 15 days
How it was run: as §3

[8] = tested on: cocklebur; assay: Test B pre-/postemergence herbicide test; type: in vivo, Xanthium strumarium; details: for Plant response rating, Cocklebur: preemergence; for Cocklebur plant response rating: postemergence, visual rating, scale 0 (no effect) to 100 (complete control)
How it was run: (§5)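 Species tested were Echinochloa crus-galli, Ipomoea coccinea, Xanthium strumarium and Oryza sativa, treated both before emergence and at the 1- to 4-leaf stage; rice and barnyardgrass were also tested under flooding at 2 leaves. Greenhouse incubation lasted 13–15 days before visual 0–100 scoring.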

[9] = tested on: velvetleaf; assay: Test B pre-/postemergence herbicide test; type: in vivo, Abutilon theophrasti; details: for Plant response rating, Velvetleaf: preemergence; for Velvetleaf plant response rating: postemergence, visual rating, scale 0 (no effect) to 100 (complete control)
How it was run: as §2

[10] = tested on: barnyardgrass; assay: Test A pre-/postemergence herbicide test; type: in vivo, Echinochloa crus-galli
How it was run: as §1

[11] = tested on: giant foxtail; assay: Test A pre-/postemergence herbicide test; type: in vivo, Setaria faberi
How it was run: as §1

[12] = tested on: morningglory; assay: Test A pre-/postemergence herbicide test; type: in vivo, Ipomoea spp.
How it was run: as §1

[13] = tested on: barnyardgrass; assay: Test B pre-/postemergence herbicide test; type: in vivo, Echinochloa crus-galli; details: for Plant response rating, Barnyardgrass: preemergence; for Barnyardgrass plant response rating: postemergence, visual rating, scale 0 (no effect) to 100 (complete control)
How it was run: as §5

[14] = tested on: Surinam grass; assay: Test B pre-/postemergence herbicide test; type: in vivo, Urochloa decumbens; details: for Plant response rating, Surinam Grass: preemergence; for Surinam Grass plant response rating: postemergence, visual rating, scale 0 (no effect) to 100 (complete control)
How it was run: as §2

[15] = tested on: ducksalad; assay: Test B flooded paddy test; type: in vivo, Heteranthera limosa; details: 1000 g ai/ha, visual rating, scale 0 to 100 (0 no effect, 100 complete control), 13 to 15 days
How it was run: as §3

[16] = tested on: barnyardgrass; assay: Test B flooded paddy test; type: in vivo, Echinochloa crus-galli; details: 1000 g ai/ha, visual rating, scale 0 to 100 (0 no effect, 100 complete control), 13 to 15 days
How it was run: as §3

[17] = tested on: rice; assay: Test B flooded paddy test; type: in vivo, Oryza sativa; details: 1000 g ai/ha, visual rating, scale 0 to 100 (0 no effect, 100 complete control), 13 to 15 days
How it was run: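 Formulated test chemicals went onto postemergence plants measuring 2 to 18 cm, at one to four leaves. For the paddy assay, species had reached two leaves. Scoring took place 13–15 days later by eye, relative to untreated plants, using 0 for no effect up to 100 for full control.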

[18] = tested on: redroot pigweed; assay: Test A pre-/postemergence herbicide test; type: in vivo, Amaranthus retroflexus
How it was run: as §1

[19] = tested on: large crabgrass; assay: Test B pre-/postemergence herbicide test; type: in vivo, Digitaria sanguinalis; details: for Plant response rating, Crabgrass, Large: preemergence; for Crabgrass, Large plant response rating: postemergence, visual rating, scale 0 (no effect) to 100 (complete control)
How it was run: as §2

[20] = tested on: morningglory; assay: Test B pre-/postemergence herbicide test; type: in vivo, Ipomoea coccinea; details: for Plant response rating, Morningglory: preemergence; for Morningglory plant response rating: postemergence, visual rating, scale 0 (no effect) to 100 (complete control)
How it was run: as §5

[21] = tested on: rice; assay: Test B pre-/postemergence herbicide test; type: in vivo, Oryza sativa; details: 500 g ai/ha; visual rating 0-100, 0 no effect, 100 complete control; preemergence
How it was run: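 Greenhouse pot assay with simultaneous preemergence (treated seed) and postemergence (2–18 cm seedlings) applications of surfactant-containing, non-phytotoxic solvent formulations. Response scored visually 13–15 days later on a 0–100 scale, 100 meaning complete control.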

[22] = tested on: lambsquarters; assay: Test B pre-/postemergence herbicide test; type: in vivo, Chenopodium album; details: for Plant response rating, Lambsquarters: preemergence; for Lambsquarters plant response rating: postemergence, visual rating, scale 0 (no effect) to 100 (complete control)
How it was run: as §2

[23] = tested on: wheat; assay: Test B postemergence herbicide test; type: in vivo, Triticum aestivum; parameters: key to Wheat plant response rating: 0 = no effect, 100 = complete control; details: postemergence, visual rating, scale 0 (no effect) to 100 (complete control)
How it was run: as §4

[24] = tested on: corn; assay: Test B pre-/postemergence herbicide test; type: in vivo, Zea mays; details: for Plant response rating, Corn: preemergence; for Corn plant response rating: postemergence, visual rating, scale 0 (no effect) to 100 (complete control)
How it was run: as §2

[25] = Postemergence, 250 g ai/ha, 0 to 100 scale, 0 no effect, 100 complete control
[26] = Postemergence, 1000 g ai/ha, 0 to 100 scale, 0 no effect, 100 complete control
[27] = Preemergence, 1000 g ai/ha, visual rating, 0 to 100 scale (0 no effect, 100 complete control)
[28] = preemergence, 250 g ai/ha, visual injury, 0 to 100 scale (0 no effect, 100 complete control)
[29] = 500 g ai/ha, visual rating 0-100, 0 no effect, 100 complete control
[30] = 125 g ai/ha, 0 to 100 scale, 0 is no effect, 100 is complete control

CC(C)(C)c1cc(C(=O)Nc2cccc(SC(F)(F)F)c2)n(CCF)n1 [Compound 132]
Velvetleaf plant response rating [1, 25]: 20
Plant response rating, Velvetleaf [1, 26]: 30
Velvetleaf plant response rating [1, 27]: 20
Velvetleaf plant response rating [1, 28]: 15
Crabgrass, Large plant response rating [2, 25]: 20
Plant response rating, Crabgrass, Large [2, 26]: 25
Crabgrass, Large plant response rating [2, 27]: 35
Crabgrass, Large plant response rating [2, 28]: 20
Plant response rating, Pigweed [3, 29]: 100
Pigweed plant response rating ([3]; 125 g ai/ha): 70
Pigweed plant response rating ([3]; 500 g ai/ha): 90
Plant response rating, Pigweed [3, 30]: 100
Blackgrass plant response rating ([4]; 125 g ai/ha): 10
Blackgrass plant response rating ([4]; 500 g ai/ha): 40
Oat, Wild plant response rating ([5]; 125 g ai/ha): 20
Oat, Wild plant response rating ([5]; 500 g ai/ha): 20
Plant response rating, Foxtail, Giant [6, 29]: 80
Foxtail, Giant plant response rating ([6]; 125 g ai/ha): 30
Foxtail, Giant plant response rating ([6]; 500 g ai/ha): 40
Plant response rating, Foxtail, Giant [6, 30]: 30
Sedge, Umbrella plant response rating [7]: 40
Plant response rating, Cocklebur [8, 29]: 0
Cocklebur plant response rating ([8]; 125 g ai/ha): 90
Cocklebur plant response rating ([8]; 500 g ai/ha): 90
Plant response rating, Cocklebur [8, 30]: 0
Plant response rating, Velvetleaf [9, 29]: 70
Velvetleaf plant response rating ([9]; 125 g ai/ha): 60
Velvetleaf plant response rating ([9]; 500 g ai/ha): 60
Plant response rating, Velvetleaf [9, 30]: 30
Barnyardgrass plant response rating [10, 25]: 20
Plant response rating, Barnyardgrass [10, 26]: 30
Barnyardgrass plant response rating [10, 27]: 10
Barnyardgrass plant response rating [10, 28]: 0
Foxtail, Giant plant response rating [11, 25]: 15
Plant response rating, Foxtail, Giant [11, 26]: 20
Foxtail, Giant plant response rating [11, 27]: 40
Foxtail, Giant plant response rating [11, 28]: 25
Morningglory plant response rating [12, 25]: 10
Plant response rating, Morningglory [12, 26]: 20
Morningglory plant response rating [12, 27]: 10
Morningglory plant response rating [12, 28]: 5
Plant response rating, Barnyardgrass [13, 29]: 50
Barnyardgrass plant response rating ([13]; 125 g ai/ha): 50
Barnyardgrass plant response rating ([13]; 500 g ai/ha): 60
Plant response rating, Barnyardgrass [13, 30]: 10
Plant response rating, Surinam Grass [14, 29]: 70
Surinam Grass plant response rating ([14]; 125 g ai/ha): 40
Surinam Grass plant response rating ([14]; 500 g ai/ha): 60
Plant response rating, Surinam Grass [14, 30]: 40
Ducksalad plant response rating [15]: 10
Barnyardgrass plant response rating [16]: 30
Rice plant response rating [17]: 0
Pigweed plant response rating [18, 25]: 75
Plant response rating, Pigweed [18, 26]: 65
Pigweed plant response rating [18, 27]: 40
Pigweed plant response rating [18, 28]: 30
Plant response rating, Crabgrass, Large [19, 29]: 100
Crabgrass, Large plant response rating ([19]; 125 g ai/ha): 30
Crabgrass, Large plant response rating ([19]; 500 g ai/ha): 40
Plant response rating, Crabgrass, Large [19, 30]: 90
Plant response rating, Morningglory [20, 29]: 20
Morningglory plant response rating ([20]; 125 g ai/ha): 60
Morningglory plant response rating ([20]; 500 g ai/ha): 70
Plant response rating, Morningglory [20, 30]: 10
Plant response rating, Rice [21]: 0
Plant response rating, Lambsquarters [22, 29]: 90
Lambsquarters plant response rating ([22]; 125 g ai/ha): 100
Lambsquarters plant response rating ([22]; 500 g ai/ha): 100
Plant response rating, Lambsquarters [22, 30]: 60
Wheat plant response rating ([23]; 125 g ai/ha): 10
Wheat plant response rating ([23]; 500 g ai/ha): 20
Plant response rating, Corn [24, 29]: 10
Corn plant response rating ([24]; 125 g ai/ha): 20
Corn plant response rating ([24]; 500 g ai/ha): 20
Plant response rating, Corn [24, 30]: 10

From patent US20060069132A1, “Azolecarboxamide herbicides” (priority 2004, published 2006)
